Several values for one entry are separate records, joined by “and”; a condition that tells them apart may be missing. Equal entries are not always repeated. Peptide text beside a SMILES is read from it.
How the values were obtained:
[1] = test system: muscle tissue, subcutaneous connective tissue, and dermis at injection sites; assay: Injection into skin, subcutaneous tissue and extremity skeletal muscle of normal rats; histopathology at 24 hours; format: in vivo, rat
From the text: The individual foci of infiltration were excised, fixed in 10% formalin, embedded in paraffin, and stained and examined by standard histopathological methods.
The controls received saline alone.
Tissues were excised, fixed in 10% formalin, embedded in paraffin, and stained and examined by standard histopathological methods.

rat prostate = assay: Intraprostatic infusion in rats; prostate volume and histology at 72 hours; format: in vivo, rat (Sprague-Dawley); conditions: for prostate histology (H & E): intraprostatic infusion, rats sacrificed after 72 hours
Description: (§1) Male Sprague-Dawley rats (300 gram weight range) were anesthetized with ether and given NTP peptide #6 by intraprostatic infusion after open surgical visualization of the prostate. The injections consisted of 300 μl of NTP peptide #6, 1 mg/mL in PBS pH 7.4. (1.0 mg/kg) (n=8), control injections of PBS alone (n=6), and controls with no injection (n=2). Rats were painlessly sacrificed after 72 hours. Prostate glands were dissected, fixed in 10% buffered formalin for 24 hours, embedded in paraffin, sectioned, and stained with H & E. For each animal the entire prostate gland was embedded and sectioned. All stained sections were examined histologically and measured. For each prostate at least 4 histological sections were examined, and for each histological section two cross-sectional diameters (D) at 90° from each other were measured (total of ≧8 measurements per prostate). The mean diameter from these measurements for each prostate was used to estimate volume according to
as §1, with “Related Peptide #2” for “NTP peptide #6”, “Related Peptide #2,” for “NTP peptide #6,”, “>8” for “≧8”
The controls were the same as Example 1.
Normal rats were injected in the prostate as in the above Examples 1 and 4 with Related Peptide #3. Rats were painlessly sacrificed after 72 hours and their prostate glands were examined as in the above Examples 1 and 4.

[2] = test system: normal rodent muscle tissue, subcutaneous connective tissue, dermis; human and non-human origin tumors; conditions: dermis and a variety of human and non-human origin tumors in rodent models; cited from earlier work

With `CC[C@H](C)[C@H](NC(=O)[C@H](CCC(=O)O)NC(=O)[C@H](CC(C)C)NC(=O)[C@H](CCCCN)NC(=O)[C@@H](NC(=O)[C@H](CCCNC(=N)N)NC(=O)[C@H](CO)NC(=O)[C@@H](N)CC(C)C)[C@@H](C)CC)C(=O)N[C@@H](CCCCN)C(=O)O` [NTP peptide #7, LSRIKLEIK] (H-LSRIKLEIK-OH; N-terminus and C-terminus assumed) as the compound, how does the “spread of necrosis beyond the site of injection” value [1] read?
Its value is “did not appear to spread far beyond the site of injection”.

For QQSIAVKFLAVFGVSI [Related Peptide #2], which “prostate histology (H & E)” value (rat prostate) is on record?
Its value is “significant cell loss and atrophy in the prostate”.

Which results are given for IDQQVLSRIKLEIKRCL [NTP peptide #6]?
prostate histology (H & E) (rat prostate): extensive loss of glandular epithelium, flattening and atrophy; reduction in prostate volume compared to controls (rat prostate; intraprostatic open infusion 1.0 mg/kg (300 μl, 1 mg/mL in PBS pH 7.4), 72 hours, vs untreated or PBS treated controls, estimated from mean diameters): 45% and > 40%

For “AD7c-NTP: ˜41 kD neural thread protein, membrane associated phosphoprotein, SEQ ID NO. 1”, which “causing cell death in vivo” value [2] is on record?
Its value is “effective agent for causing cell death”.

For “GLLFPVFSVCYLIAPKSPLGL [Related Peptide #3]”, which “prostate histology (H & E)” value (rat prostate) is on record?
Its value is “Significant cell loss and atrophy of prostate”.

With “GDHGRPNLSRLKLAIKYEVKKM [Related Peptide #1]” as the compound, how does the “histopathology of tissue at injection sites” value ([1]; at 0.1-1 mg/mL in saline) read?
The value was “cell death and necrosis of tissue at the injection sites”.

Source: US7241738B2, “Peptides effective in the treatment of tumors and other conditions requiring the removal or destruction of cells” (Nymox Pharmaceutical Corporation, priority 2001, dated 2007)
